# Assay results published in US6841552B1, “3a,4,5,9b-tetrahydro-1H-benz[e]indol-2-yl amine-derived neuropeptide Y receptors ligands useful in the treatment of obesity and other disorders” (Ortho-McNeil Pharmaceutical, Inc., priority 1999, dated 2005).
# Where a name gives a salt, the structure may show the parent alone.
# Columns and labels:
# [1] = molecular target: T1, human neuropeptide Y5 receptor (Homo sapiens, UniProt Q15761); test: NPY5 HTS centrifugation assay: competition with 125I-PYY for binding to membranes of NPY5-transfected HEK293 cells
# T1 construct: expressed in transfected cells; membranes
# T1 sequence (Q15761 1-445): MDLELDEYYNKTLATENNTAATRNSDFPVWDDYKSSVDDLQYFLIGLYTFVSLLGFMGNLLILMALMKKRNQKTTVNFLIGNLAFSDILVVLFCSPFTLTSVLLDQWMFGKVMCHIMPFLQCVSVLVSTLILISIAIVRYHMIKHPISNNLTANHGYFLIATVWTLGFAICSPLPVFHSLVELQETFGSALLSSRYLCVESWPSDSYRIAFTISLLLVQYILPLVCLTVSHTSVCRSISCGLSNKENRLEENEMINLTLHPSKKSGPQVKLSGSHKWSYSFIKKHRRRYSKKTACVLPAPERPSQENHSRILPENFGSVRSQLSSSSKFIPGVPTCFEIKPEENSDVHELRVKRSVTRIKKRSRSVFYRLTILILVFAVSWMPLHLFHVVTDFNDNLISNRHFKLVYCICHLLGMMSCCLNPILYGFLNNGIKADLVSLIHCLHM
# Procedure: NPY5 HTS Centrifugation Assay
# The compounds described in this invention were evaluated for binding to the human neuropeptide Y5 receptor.
# The human NPY5 receptor cDNA (Genbank Accession number U66275) was inserted into the vector pClneo (Invitrogen) and transfected into human embryonic kidney cells (HEK-293) via calcium phosphate method (Cullen 1987). Stably transfected cells were selected with G-418 (600 μg/mL). Stably transfected cells served as the source for the membranes for the NPY5 receptor binding assay.
# NPY5-transfected HEK293 cells were grown to confluence in 150 cm^2 culture dishes. Cells were washed once with phosphate-buffered saline (Gibco Cat# 14040-133). Cells were then incubated in phosphate-buffered saline without calcium and without magnesium, supplemented with 2 mM EDTA. Cells were incubated for 10 minutes at room temperature and the cells were collected by repetitive pipeting. Cells were formed into pellets and then frozen at −80° C. until needed. Frozen pellets were homogenized with a polytron at full speed for 12 seconds in a homogenization buffer (20 mM Tris HCl, 5 mM EDTA, pH 7.4). Homogenates were centrifuged for 5 minutes at 4° C. at 200 g. Supernatants were transferred to corex tubes and centrifuged for 25 minutes at 28,000 g. Pellets were re-suspended in Binding (20 mM HEPES, 10 mM NaCl, 0.22 mM KH2PO4, 1.3 mM CaCl2, 0.8 mM MgSO4, pH 7.4). Membranes were kept on ice until use.
# A competition binding assay, known to those skilled in the art, was used in which compounds of formula A compete with ^125I-PYY for binding to cell membranes. In simple terms, the less ^125I-PYY bound to the membranes implies that a compound is a good inhibitor (competitor). Bound ^125I-PYY is determined by centrifugation of membranes, aspirating supernatant, washing away residual ^125I-PYY and subsequently counting the bound sample in a gcounter.
# Compounds to be tested were prepared as 10× stocks in binding buffer and added first to assay tubes (RIA vials, Sarstedt). Twenty (20) μL of each 10× compound stock is pipeted into vials and 80 μL of ^125I-PYY (NEN catalog number NEX240), which has been diluted to a concentration of 200 pM in 0.25% BSA in binding buffer, is added to the compound tubes (final concentration of ^125I-PYY is 80 pM). To each tube is added 100 μL of membranes and the mixture is agitated by pipeting 2 times. Samples are incubated for 1 hr at room temperature. Aluminum cast plates (Sarstedt) containing the vials are then centrifuged 10 minutes at 3200 rpm in a Sorvall RT6000. Supernatant is then aspirated. To each vial 400 μL PBS is added and this is then aspirated again. Vials are then put in carrier polypropylene 12×75 tube and counted in gamma counter (Packard). Non-specific binding is determined in the presence of 300 nM NPY. Percent inhibition of ^125I-PYY binding is calculated by subtracting non-specific binding from the test samples (compound (I)), taking these counts and dividing by total binding, and multiplying by 100. Inhibitory concentration values (IC50) of compounds that show appreciable inhibition of ^125I-PYY binding are calculated by obtaining percent inhibition of ^125I-PYY binding values at different concentrations of the test compound, and using a graphing program such as GraphPad Prism (San Diego, Calif.) to calculate the concentration of test compound that inhibits fifty-percent of ^125I-PYY binding (Table 4).
# Food-Deprived Rats = test: Rodent feeding model: measurement of food intake in food-deprived rats; type: in vivo, Male Long-Evans rats; settings: 30 mg/kg i.p.
# From the text: Measurement of Food Intake in Food-Deprived Rats
# Male Long-Evans rats (180-200 grams) are housed individually and are maintained on once-a-day feeding schedule (i.e., 10 a.m. until 4 p.m.) for five days following quarantine to allow the animals to acclimate to feeding on powdered chow (#5002 PMI Certified Rodent Meal) during the allotted time. The chow is made available in a open jar, anchored in the cage by a wire, with a metal follower covering the food to minimize spillage. Water is available ad-libitum.
# Animals are fasted for 18 hours prior to testing. At the end of the fasting period, animal are administered either compounds of the invention or vehicle. Vehicle and test compounds are administered either orally (5 mL/kg) 60 minutes prior to the experiment, or 30 minutes prior when given subcutaneously (1 mL/kg) or intraperitoneally (1 mL/kg). Compounds of the invention are administered orally as a suspension in aqueous 0.5% methylcellulose-0.4% Tween 80, or intraperitoneally as a solution or suspension in PEG 200; compound concentrations typically range from 1 mg/kg to 100 mg/kg, preferably from 10-30 mg/kg. Food intake is measured at 2, 4, and 6 hours after administration by weighing the special jar containing the food before the experiment and at the specified times. Upon completion of the experiment, all animals are given a one-week washout period before retesting.
# Percent reduction of food consumption is calculated subtracting the grams of food consumed by the treated group from the grams of food consumed by the control group divided by the grams of food consumed by the control group, multiplied by 100. A negative value indicates a reduction in food consumption and a positive value indicates an increase in food consumption. [formula]
compound,measurement,setting,value
"O=S(=O)(NC[C@H]1CC[C@H](CNC2=N[C@@H]3CCc4cc(O)ccc4[C@@H]3C2)CC1)c1ccccc1 [Compound 10, N-[[trans-4-[[(cis-3a,4,5,9b-ttrahydro-7-hydroxy-1H-benz[e]indol-2-yl)amino]methyl]cyclohexyl]methyl]benzenesulfonamide hydrochloride]",inhibition at 0.3 µM,"[1]; % inhibition of 125I-PYY binding at 300 nM compound, read-out: % Inh @ 300 nM",74%
same,inhibition at 3 µM,[1]; % inhibition of 125I-PYY binding at 3 uM compound,97%
same,Food Consumption (avg. grams) 0-2 h,"Food-Deprived Rats; 0-2 h, 18 h fasted rats",4.38 g
same,Food Consumption 0-2 h (% chg.),"Food-Deprived Rats; 0-2 h, change vs vehicle, negative = reduction",(−57%)
same,Food Consumption (avg. grams) 0-4 h,"Food-Deprived Rats; 0-4 h, 18 h fasted rats",6.43 g
same,Food Consumption 0-4 h (% chg.),"Food-Deprived Rats; 0-4 h, change vs vehicle, negative = reduction",(−53%)
same,Food Consumption (avg. grams) 0-6 h,"Food-Deprived Rats; 0-6 h, 18 h fasted rats",10.75 g
same,Food Consumption 0-6 h (% chg.),"Food-Deprived Rats; 0-6 h, change vs vehicle, negative = reduction",(−49%)
same,Food Consumption (avg. grams) 2-6 h,"Food-Deprived Rats; 2-6 h, 18 h fasted rats",6.37 g
same,Food Consumption 2-6 h (% chg.),"Food-Deprived Rats; 2-6 h, change vs vehicle, negative = reduction",(−41%)
